Assay results as given in patent US20140343000A1 (priority 2011, published 2014).

What follows are compounds tested on recombinant NL4-3 virus (Renilla luciferase in nef, Gag P373S; NLRluc) in MT-2 cells (assay: whole plant or invertebrate). Conditions: Renilla, NL43, luciferase activity in cells infected for 4-5 days with NLRluc recombinants, serial dilutions of inhibitor; class symbols (key in Table 1); read-out: EC50.
Format: cell-based, HIV
Summary of the method: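 First, reporter virus was generated in 293T cells and titered on MT-2 cells. Next, MT-2 cells were infected in the presence of serial compound dilutions for 4-5 days. Finally, cells were lysed and luciferase activity was measured to quantify inhibition.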
With C=C(C)[C@@H]1CC[C@]2(NCCNS(=O)(=O)CCC)CC[C@]3(C)[C@H](CC[C@@H]4[C@@]5(C)CC=C(c6ccc(C(=O)O)cc6)C(C)(C)[C@@H]5CC[C@]43C)[C@@H]12 [Example B34, 4-((1R,3aS,5aR,5bR,7aR,11aS,11bR,13aR,13bR)-5a,5b,8,8,11a-pentamethyl-1-(prop-1-en-2-yl)-3a-((2-(propylsulfonamido)ethyl)amino)-2,3,3a,4,5,5a,5b,6,7,7a,8,11,11a,11b,12,13,13a,13b-octadecahydro-1H-cyclopenta[a]chrysen-9-yl)benzoic acid] the EC50 was < 100 nM. With C=C(C)[C@@H]1CC[C@]2(NCCN3CCN(S(=O)(=O)CC(C)C)CC3)CC[C@]3(C)[C@H](CC[C@@H]4[C@@]5(C)CC=C(c6ccc(C(=O)O)cc6)C(C)(C)[C@@H]5CC[C@]43C)[C@@H]12 [Example B35, 4-((1R,3aS,5aR,5bR,7aR,11aS,11bR,13aR,13bR)-3a-((2-(4-(isobutylsulfonyl)piperazin-1-yl)ethyl)amino)-5a,5b,8,8,11a-pentamethyl-1-(prop-1-en-2-yl)-2,3,3a,4,5,5a,5b,6,7,7a,8,11,11a,11b,12,13,13a,13b-octadecahydro-1H-cyclopenta[a]chrysen-9-yl)benzoic acid] the EC50 was < 100 nM. For C=C(C)[C@@H]1CC[C@]2(NCCN3CCN(S(=O)(=O)c4cccnc4)CC3)CC[C@]3(C)[C@H](CC[C@@H]4[C@@]5(C)CC=C(c6ccc(C(=O)O)cc6)C(C)(C)[C@@H]5CC[C@]43C)[C@@H]12 [Example B36, 4-((1R,3aS,5aR,5bR,7aR,11aS,11bR,13aR,13bR)-5a,5b,8,8,11a-pentamethyl-1-(prop-1-en-2-yl)-3a-((2-(4-(pyridin-3-ylsulfonyl)piperazin-1-yl)ethyl)amino)-2,3,3a,4,5,5a,5b,6,7,7a,8,11,11a,11b,12,13,13a,13b-octadecahydro-1H-cyclopenta[a]chrysen-9-yl)benzoic acid], the EC50 was < 100 nM. C=C(C)[C@@H]1CC[C@]2(NCCN3CCN(S(=O)(=O)N(CC)CC)CC3)CC[C@]3(C)[C@H](CC[C@@H]4[C@@]5(C)CC=C(c6ccc(C(=O)O)cc6)C(C)(C)[C@@H]5CC[C@]43C)[C@@H]12 [Example B37, 4-((1R,3aS,5aR,5bR,7aR,11aS,11bR,13aR,13bR)-3a-((2-(4-(N,N-diethylsulfamoyl)piperazin-1-yl)ethyl)amino)-5a,5b,8,8,11a-pentamethyl-1-(prop-1-en-2-yl)-2,3,3a,4,5,5a,5b,6,7,7a,8,11,11a,11b,12,13,13a,13b-octadecahydro-1H-cyclopenta[a]chrysen-9-yl)benzoic acid] was tested, and the EC50 was < 100 nM. With C=C(C)[C@@H]1CC[C@]2(NCCN3CCN(S(=O)(=O)CCCCl)CC3)CC[C@]3(C)[C@H](CC[C@@H]4[C@@]5(C)CC=C(c6ccc(C(=O)O)cc6)C(C)(C)[C@@H]5CC[C@]43C)[C@@H]12 [Example B38, 4-((1R,3aS,5aR,5bR,7aR,11aS,11bR,13aR,13bR)-3a-((2-(4-((3-chloropropyl)sulfonyl)piperazin-1-yl)ethyl)amino)-5a,5b,8,8,11a-pentamethyl-1-(prop-1-en-2-yl)-2,3,3a,4,5,5a,5b,6,7,7a,8,11,11a,11b,12,13,13a,13b-octadecahydro-1H-cyclopenta[a]chrysen-9-yl)benzoic acid] the EC50 was < 100 nM.

Same assay, conditions: Renilla, NL43, luciferase activity in cells infected for 4-5 days with NLRluc recombinants, serial dilutions of inhibitor; numeric values; read-out: EC50
Compound C=C(C)[C@@H]1CC[C@]2(NCCNS(=O)(=O)CC)CC[C@]3(C)[C@H](CC[C@@H]4[C@@]5(C)CC=C(c6ccc(C(=O)O)cc6)C(C)(C)[C@@H]5CC[C@]43C)[C@@H]12 [Example B33, 4-((1R,3aS,5aR,5bR,7aR,11aS,11bR,13aR,13bR)-3a-((2-(ethylsulfonamido)ethyl)amino)-5a,5b,8,8,11a-pentamethyl-1-(prop-1-en-2-yl)-2,3,3a,4,5,5a,5b,6,7,7a,8,11,11a,11b,12,13,13a,13b-octadecahydro-1H-cyclopenta[a]chrysen-9-yl)benzoic acid] has an EC50 of 5 nM.
